How the values were obtained:
skin of human volunteers [1] = assay: Visual observation of vasodilation (blushing) after topical application of lotion to forearm; format: in vivo; details: for Vasodilation at 0.1%: 0.1% in skin lotion; for Vasodilation at 0.1% / Vasodilation at 1.0%: anterior forearm, visual blushing; for Vasodilation at 1.0%: 1.0% in skin lotion
Procedure: This example details the first of two sets of experiments designed to determine the vasodilation effect of alkyl niacin esters. Formulations were prepared by combining the alkyl esters referred to supra in a skin lotion, at 0.1% and 1.0% concentrations. The lotions were applied topically to the skin of human volunteers on the anterior surface of a forearm. Vasodilation was observed visually, i.e., by observing blushing at the site of application, or lack thereof. Both onset and duration of vasodilation were measured.

skin of human volunteers [2] = assay: Skin oxygen / CO2 content by transcutaneous monitor after topical application; format: in vivo
Procedure: To examine this issue, the oxygen content of skin to which the octyl ester discussed supra was determined directly, using a transcutaneous oxygen monitor. The 1% formulation of the octyl ester was applied to skin for 30 minutes. After this thirty minute period, the skin was cleaned with soap and water, wiped with an alcohol swab, and a drop of deionized water was placed on the sensor surface before its attachment to the anterior surface of the volunteers' forearms. The transcutaneous values were recorded constantly, and stored by the instrument. The monitor measures relative oxygen content, because the temperature at which the monitor operates does impact the oxygen permeability of the stratum corneum. See, e.g., Martin, Resp. […] The sensor was calibrated at 4 hour intervals, or whenever the sensor temperature was changed.
The monitor was operated at a temperature of 40° C. Values are given for both a control, and the formulation described herein.
In a follow-up experiment, the monitor was operated at 38° C., and both O2 and CO2 were measured, with a combined transcutaneous oxygen and CO2 monitor. […] The control is represented by the dotted line.
Parallel experiments were carried out using 0.1% octyl niacin ester lotion, and a lotion containing octyl niacin ester (0.1%), and 0.1% butyl benzoate.
Oxygen content was measured in the same way as is described, supra, or using other techniques known to the art.

[3] = monitor at 38° C., versus control, FIG. 3

Row | Structure (SMILES) | Vasodilation at 0.1% (skin of human volunteers [1]) | Vasodilation at 1.0% (skin of human volunteers [1]) | further results
1 | COC(=O)c1cccnc1 [1 carbon] | Yes | Yes | 
2 | CCOC(=O)c1cccnc1 [2 carbons, Ethyl niacin] | Yes | Yes | Vasodilation Effect at 0.1%: Onset (skin of human volunteers [1]; 0.1% lotion, visual determination): 5 to 10 min
3 | CCCCOC(=O)c1cccnc1 [4 carbons] | Yes | Yes | 
4 | CCCCCCOC(=O)c1cccnc1 [6 carbons, Hexyl niacin] | Yes | Yes | 
5 | CCCCCCCCOC(=O)c1cccnc1 [8 carbons, Octyl niacin] | Yes | Yes | Skin oxygen content (transcutaneous oxygen monitor) (skin of human volunteers [2]; 1% formulation applied 30 minutes, monitor at 40° C., versus control, FIG. 2): sustained increase in skin oxygen; Skin CO2 content (combined transcutaneous oxygen and CO2 monitor) (skin of human volunteers [2]; [3]): decrease in CO2 content; Skin oxygen content (combined transcutaneous oxygen and CO2 monitor) (skin of human volunteers [2]; [3]): sustained increase in skin oxygen content; Vasodilation Effect at 0.1%: Duration (skin of human volunteers [1]; 0.1% lotion, visual determination, listed as C8): longest effect
6 | CCCCCCCCCOC(=O)c1cccnc1 [9 carbons] | No | Yes | Vasodilation at 1.0% (skin of human volunteers [1]; listed as C9): caused vasodilation
7 | CCCCCCCCCCOC(=O)c1cccnc1 [10 carbons] | No | Yes | Vasodilation at 1.0% (skin of human volunteers [1]; listed as C10): caused vasodilation
8 | CCCCCCCCCCCOC(=O)c1cccnc1 [11 carbons] | No | Slight | 
9 | CCCCCCCCCCCCOC(=O)c1cccnc1 [12 carbons] | No | No | 
10 | CCCCCCCCCCCCCOC(=O)c1cccnc1 [13 carbons] | No | No | 
11 | CCCCCCCCCCCCCCOC(=O)c1cccnc1 [14 carbons] | No | No | 
12 | CCCCCCCCCCCCCCCOC(=O)c1cccnc1 [15 carbons] | No | No | 
13 | CCCCCCCCCCCCCCCCOC(=O)c1cccnc1 [16 carbons] | No | No | 
14 | CCCCCCCCCCCCCCCCCCOC(=O)c1cccnc1 [18 carbons] | No | No | 
15 | CCCCOC(=O)c1ccccc1 [Butyl benzoate, reference compound] |  |  | Effect on the increase in skin oxygen content caused by octyl niacin ester (skin of human volunteers [2]; lotion with 0.1% octyl niacin ester plus 0.1% butyl benzoate versus 0.1% octyl niacin ester lotion alone, FIG. 4): blocked the increase in oxygen content

Source: patent US6924299B2, “Methods and compositions useful in enhancing oxygen delivery to cells” (University of Kentucky Research Foundation, priority 2000, dated 2005)
